Measurements: ChEMBL document CHEMBL4630901 (2021)

Experiments:
Settings in all cases: Compound concentration 10.0 uM
[1] = biological target: 5-hydroxytryptamine receptor 1B (Homo sapiens) (UniProt P28222)
[2] = biological target: T1, Alpha-2C adrenergic receptor (Homo sapiens) (UniProt P18825)
T1 sequence (whole entry): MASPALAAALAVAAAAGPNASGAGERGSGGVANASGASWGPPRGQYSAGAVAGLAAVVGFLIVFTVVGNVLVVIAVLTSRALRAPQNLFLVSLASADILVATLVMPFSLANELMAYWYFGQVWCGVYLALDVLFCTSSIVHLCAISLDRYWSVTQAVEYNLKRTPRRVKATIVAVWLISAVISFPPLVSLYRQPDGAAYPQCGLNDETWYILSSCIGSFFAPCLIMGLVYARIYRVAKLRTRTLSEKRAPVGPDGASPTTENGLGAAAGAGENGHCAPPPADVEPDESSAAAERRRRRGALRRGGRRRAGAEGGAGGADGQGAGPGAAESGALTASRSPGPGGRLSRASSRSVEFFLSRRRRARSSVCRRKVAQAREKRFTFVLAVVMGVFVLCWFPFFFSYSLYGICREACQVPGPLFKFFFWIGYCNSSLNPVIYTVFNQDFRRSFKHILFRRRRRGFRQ

[3] = biological target: T2, Muscarinic acetylcholine receptor M4 (Homo sapiens) (UniProt P08173)
T2 sequence (whole entry): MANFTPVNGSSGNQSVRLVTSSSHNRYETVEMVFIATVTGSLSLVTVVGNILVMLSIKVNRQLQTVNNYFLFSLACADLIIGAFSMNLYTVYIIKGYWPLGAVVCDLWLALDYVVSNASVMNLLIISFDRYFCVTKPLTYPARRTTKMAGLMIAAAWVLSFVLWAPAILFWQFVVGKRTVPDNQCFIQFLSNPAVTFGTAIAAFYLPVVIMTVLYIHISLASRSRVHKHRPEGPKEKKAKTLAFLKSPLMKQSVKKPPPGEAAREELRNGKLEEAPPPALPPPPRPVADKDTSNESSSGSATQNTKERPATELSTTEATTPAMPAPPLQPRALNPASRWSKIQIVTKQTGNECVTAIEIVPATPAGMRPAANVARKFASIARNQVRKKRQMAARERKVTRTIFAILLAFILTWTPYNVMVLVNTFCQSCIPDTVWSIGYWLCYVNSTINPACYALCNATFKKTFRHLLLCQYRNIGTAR

[4] = biological target: D(2) dopamine receptor (Homo sapiens) (UniProt P14416)
[5] = biological target: T3, 5-hydroxytryptamine receptor 1A (Homo sapiens) (UniProt P08908)
T3 sequence (whole entry): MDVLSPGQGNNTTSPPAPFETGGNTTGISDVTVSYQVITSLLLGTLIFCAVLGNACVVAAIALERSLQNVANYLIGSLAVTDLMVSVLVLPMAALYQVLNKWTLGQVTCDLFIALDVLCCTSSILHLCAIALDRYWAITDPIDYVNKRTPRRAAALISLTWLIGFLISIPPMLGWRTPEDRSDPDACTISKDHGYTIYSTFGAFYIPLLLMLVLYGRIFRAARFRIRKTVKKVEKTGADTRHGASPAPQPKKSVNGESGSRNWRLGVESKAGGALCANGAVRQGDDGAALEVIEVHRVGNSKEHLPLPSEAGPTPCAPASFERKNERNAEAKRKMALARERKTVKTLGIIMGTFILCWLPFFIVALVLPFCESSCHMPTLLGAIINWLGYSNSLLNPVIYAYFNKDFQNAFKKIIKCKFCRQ

[6] = biological target: T4, Alpha-2A adrenergic receptor (Homo sapiens) (UniProt P08913)
T4 sequence (whole entry): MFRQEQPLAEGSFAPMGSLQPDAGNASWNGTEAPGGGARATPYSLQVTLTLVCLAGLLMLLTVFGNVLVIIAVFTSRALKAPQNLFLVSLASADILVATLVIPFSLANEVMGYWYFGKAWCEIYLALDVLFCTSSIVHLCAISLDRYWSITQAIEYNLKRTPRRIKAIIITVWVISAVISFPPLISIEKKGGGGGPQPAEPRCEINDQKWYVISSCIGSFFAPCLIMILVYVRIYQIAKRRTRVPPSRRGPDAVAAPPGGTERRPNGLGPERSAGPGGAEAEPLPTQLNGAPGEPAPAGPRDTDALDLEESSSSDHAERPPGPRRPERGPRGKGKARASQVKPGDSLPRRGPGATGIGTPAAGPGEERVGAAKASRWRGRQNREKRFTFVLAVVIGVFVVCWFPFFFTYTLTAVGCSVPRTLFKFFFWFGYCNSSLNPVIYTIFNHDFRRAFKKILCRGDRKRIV

[7] = biological target: Kappa-type opioid receptor (Homo sapiens) (UniProt P41145)
[8] = biological target: Beta-1 adrenergic receptor (Homo sapiens) (UniProt P08588)
[9] = biological target: D(1B) dopamine receptor (Homo sapiens) (UniProt P21918)
[10] = biological target: Mu-type opioid receptor (Homo sapiens) (UniProt P35372)
[11] = biological target: T5, 5-hydroxytryptamine receptor 2C (Homo sapiens) (UniProt P28335)
T5 sequence (whole entry): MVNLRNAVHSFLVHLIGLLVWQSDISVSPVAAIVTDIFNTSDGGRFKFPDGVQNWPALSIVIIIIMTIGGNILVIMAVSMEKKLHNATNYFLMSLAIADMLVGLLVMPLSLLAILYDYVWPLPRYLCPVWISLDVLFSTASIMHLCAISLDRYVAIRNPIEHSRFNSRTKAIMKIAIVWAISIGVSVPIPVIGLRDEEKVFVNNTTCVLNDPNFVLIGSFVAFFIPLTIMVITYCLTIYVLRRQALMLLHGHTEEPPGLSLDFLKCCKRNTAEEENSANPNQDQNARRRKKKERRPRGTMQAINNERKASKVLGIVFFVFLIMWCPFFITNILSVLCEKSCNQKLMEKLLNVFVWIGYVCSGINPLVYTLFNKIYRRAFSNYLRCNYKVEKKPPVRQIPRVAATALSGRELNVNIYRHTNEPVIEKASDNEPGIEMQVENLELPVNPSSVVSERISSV

[12] = biological target: Alpha-1B adrenergic receptor (Homo sapiens) (UniProt P35368)
[13] = biological target: Sodium-dependent serotonin transporter (Homo sapiens) (UniProt P31645)
Sequence of Sodium-dependent serotonin transporter (Homo sapiens) (P31645 whole entry, looked up): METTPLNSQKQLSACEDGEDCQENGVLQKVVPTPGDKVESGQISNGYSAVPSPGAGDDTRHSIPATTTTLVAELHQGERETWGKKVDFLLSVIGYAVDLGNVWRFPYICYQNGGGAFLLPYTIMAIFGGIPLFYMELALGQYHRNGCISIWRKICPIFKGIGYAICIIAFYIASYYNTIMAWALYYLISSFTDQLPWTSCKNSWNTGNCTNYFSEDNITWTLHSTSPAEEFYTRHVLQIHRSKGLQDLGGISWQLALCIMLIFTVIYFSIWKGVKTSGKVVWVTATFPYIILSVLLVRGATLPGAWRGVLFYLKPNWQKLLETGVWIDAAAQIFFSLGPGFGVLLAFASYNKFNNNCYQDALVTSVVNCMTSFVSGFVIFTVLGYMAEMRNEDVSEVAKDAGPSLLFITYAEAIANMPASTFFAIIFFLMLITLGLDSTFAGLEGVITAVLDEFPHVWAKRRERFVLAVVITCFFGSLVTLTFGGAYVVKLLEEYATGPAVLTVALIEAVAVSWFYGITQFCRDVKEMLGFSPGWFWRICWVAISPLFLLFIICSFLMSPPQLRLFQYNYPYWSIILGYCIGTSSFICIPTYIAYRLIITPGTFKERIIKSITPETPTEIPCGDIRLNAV

Sequence of Alpha-1B adrenergic receptor (Homo sapiens) (P35368 whole entry): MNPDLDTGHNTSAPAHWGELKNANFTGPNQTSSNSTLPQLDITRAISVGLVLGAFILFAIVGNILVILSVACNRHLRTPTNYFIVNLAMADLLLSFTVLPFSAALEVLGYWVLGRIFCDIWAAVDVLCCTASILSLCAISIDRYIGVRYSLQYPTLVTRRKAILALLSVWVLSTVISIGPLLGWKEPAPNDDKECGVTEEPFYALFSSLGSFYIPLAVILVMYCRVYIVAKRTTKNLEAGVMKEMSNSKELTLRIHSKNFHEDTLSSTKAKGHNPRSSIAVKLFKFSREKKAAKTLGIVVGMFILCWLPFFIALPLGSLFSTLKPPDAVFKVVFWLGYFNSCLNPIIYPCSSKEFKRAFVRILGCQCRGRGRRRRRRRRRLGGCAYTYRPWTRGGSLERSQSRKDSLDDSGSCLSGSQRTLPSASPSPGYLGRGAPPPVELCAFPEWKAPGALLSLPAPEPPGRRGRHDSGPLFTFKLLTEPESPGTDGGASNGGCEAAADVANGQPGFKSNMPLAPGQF
Sequence of Kappa-type opioid receptor (Homo sapiens) (P41145 whole entry): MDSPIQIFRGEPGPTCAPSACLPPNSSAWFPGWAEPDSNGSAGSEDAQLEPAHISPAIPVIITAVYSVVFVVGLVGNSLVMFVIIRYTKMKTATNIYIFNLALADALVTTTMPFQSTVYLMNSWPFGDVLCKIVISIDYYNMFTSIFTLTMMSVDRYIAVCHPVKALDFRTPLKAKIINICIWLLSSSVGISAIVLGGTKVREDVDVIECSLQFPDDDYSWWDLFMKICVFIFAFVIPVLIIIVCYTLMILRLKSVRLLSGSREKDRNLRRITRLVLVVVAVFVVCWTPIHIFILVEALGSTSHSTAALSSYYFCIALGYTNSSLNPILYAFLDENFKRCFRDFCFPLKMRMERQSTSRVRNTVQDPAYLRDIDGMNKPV
Sequence of D(2) dopamine receptor (Homo sapiens) (P14416 whole entry): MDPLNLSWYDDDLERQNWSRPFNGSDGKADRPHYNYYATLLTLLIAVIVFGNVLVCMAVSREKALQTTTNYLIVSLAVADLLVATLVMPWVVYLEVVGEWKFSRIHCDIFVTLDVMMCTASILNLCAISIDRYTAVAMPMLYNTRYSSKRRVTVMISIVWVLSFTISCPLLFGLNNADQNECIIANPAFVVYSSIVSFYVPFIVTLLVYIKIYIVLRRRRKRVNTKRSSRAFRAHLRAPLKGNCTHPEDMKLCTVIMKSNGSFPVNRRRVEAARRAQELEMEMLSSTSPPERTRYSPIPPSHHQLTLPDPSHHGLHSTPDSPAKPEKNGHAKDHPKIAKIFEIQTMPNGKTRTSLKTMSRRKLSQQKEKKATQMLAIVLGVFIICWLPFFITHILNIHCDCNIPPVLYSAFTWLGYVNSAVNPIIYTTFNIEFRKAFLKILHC
Sequence of Mu-type opioid receptor (Homo sapiens) (P35372 whole entry): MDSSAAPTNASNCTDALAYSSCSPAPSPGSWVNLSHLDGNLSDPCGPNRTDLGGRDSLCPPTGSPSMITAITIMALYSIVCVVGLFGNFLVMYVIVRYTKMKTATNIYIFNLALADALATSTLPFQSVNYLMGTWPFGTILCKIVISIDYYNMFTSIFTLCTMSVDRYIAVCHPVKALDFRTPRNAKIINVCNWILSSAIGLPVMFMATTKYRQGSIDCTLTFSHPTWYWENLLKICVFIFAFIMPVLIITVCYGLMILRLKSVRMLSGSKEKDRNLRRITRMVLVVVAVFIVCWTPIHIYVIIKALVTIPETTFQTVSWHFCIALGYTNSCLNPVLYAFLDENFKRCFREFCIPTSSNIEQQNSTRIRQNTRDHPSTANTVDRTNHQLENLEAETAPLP
Sequence of Beta-1 adrenergic receptor (Homo sapiens) (P08588 whole entry, looked up): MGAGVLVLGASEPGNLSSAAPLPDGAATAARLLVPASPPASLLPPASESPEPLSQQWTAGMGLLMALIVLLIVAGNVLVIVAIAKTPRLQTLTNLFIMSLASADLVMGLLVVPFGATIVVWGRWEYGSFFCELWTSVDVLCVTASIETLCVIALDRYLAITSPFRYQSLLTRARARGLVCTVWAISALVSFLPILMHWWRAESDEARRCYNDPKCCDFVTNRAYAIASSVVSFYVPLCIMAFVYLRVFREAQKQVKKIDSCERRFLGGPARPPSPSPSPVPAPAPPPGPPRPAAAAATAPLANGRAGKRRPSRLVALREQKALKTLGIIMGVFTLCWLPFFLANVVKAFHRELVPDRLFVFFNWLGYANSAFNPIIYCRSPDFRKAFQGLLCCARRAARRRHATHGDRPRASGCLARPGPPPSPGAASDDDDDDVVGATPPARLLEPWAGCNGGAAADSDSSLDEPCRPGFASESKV
Sequence of 5-hydroxytryptamine receptor 1B (Homo sapiens) (P28222 whole entry): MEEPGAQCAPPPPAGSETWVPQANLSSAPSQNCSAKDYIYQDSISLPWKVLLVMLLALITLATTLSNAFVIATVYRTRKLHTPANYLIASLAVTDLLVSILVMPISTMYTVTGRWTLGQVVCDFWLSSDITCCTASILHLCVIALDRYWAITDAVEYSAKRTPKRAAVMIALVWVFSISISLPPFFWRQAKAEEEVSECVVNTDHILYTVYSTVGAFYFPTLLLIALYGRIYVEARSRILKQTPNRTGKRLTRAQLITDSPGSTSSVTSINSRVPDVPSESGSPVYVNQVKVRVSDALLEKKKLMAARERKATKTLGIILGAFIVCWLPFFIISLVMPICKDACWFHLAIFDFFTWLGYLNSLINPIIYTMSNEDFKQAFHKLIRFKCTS
Sequence of D(1B) dopamine receptor (Homo sapiens) (P21918 whole entry): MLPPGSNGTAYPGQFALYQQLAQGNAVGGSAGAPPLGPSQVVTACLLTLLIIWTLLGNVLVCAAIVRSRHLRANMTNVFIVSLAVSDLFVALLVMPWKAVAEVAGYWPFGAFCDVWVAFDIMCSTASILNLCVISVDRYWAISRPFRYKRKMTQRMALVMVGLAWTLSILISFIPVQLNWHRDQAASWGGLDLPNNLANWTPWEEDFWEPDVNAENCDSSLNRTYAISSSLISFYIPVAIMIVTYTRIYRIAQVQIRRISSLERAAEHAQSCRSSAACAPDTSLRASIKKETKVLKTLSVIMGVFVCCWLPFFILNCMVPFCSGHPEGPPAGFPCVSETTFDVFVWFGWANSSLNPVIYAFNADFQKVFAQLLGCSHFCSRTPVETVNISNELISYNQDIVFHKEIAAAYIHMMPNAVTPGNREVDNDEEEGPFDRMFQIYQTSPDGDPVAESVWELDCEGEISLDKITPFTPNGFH

Row | SMILES | inhibition [1] | inhibition [2] | inhibition [3] | inhibition [4] | inhibition [5] | inhibition [6] | inhibition [7] | inhibition [8] | inhibition [9] | inhibition [10] | inhibition [11] | inhibition [12] | inhibition [13]
1 | Cc1c(N2CCNCC2)nc2ccc(Br)cc2c1C(=O)NC[C@H](CCC(=O)O)c1ccccc1Cl [BAY-403] | 15.2% | 5.7% | 16.2% | 2.75% | 47.1% | 65% | 17.7% | 12.6% | 5.3% | 40.9% | 12.7% | -2.31% | 5.34%
2 | Cc1c(N2CCCC2)nc2ccc(Br)cc2c1C(=O)NC[C@H](CCC(=O)O)c1ccccc1Cl [BAY-6672] | -2.2% | 16.1% | 19.4% | 9.71% | 5.62% | -4.59% | 15.4% | 15.7% | 25% | 11.7% | 2.98% | -4.96% | -7.59%
